Here are results for seven compounds from patent US12642857B2, “Degradation of AKT by conjugation of ATP-competitive AKT inhibitor GDC-0068 with E3 ligase ligands and methods of use” (DANA-FARBER CANCER INSTITUTE, INC., priority 2019, dated 2026).

The target in one experiment is T1, AKT2 (Homo sapiens, UniProt P31751).
T1 construct: purchased Life Technologies (Invitrogen)
The experiment can be described thus: Z'-LYTE assay (AKT binding assay), AKT2. As to conditions: 10-point dose response, Km ATP, read-out: Biochemical Binding AKT2. Here is the method: (§1) Z′-LYTE assays (catalog number PV3193, Invitrogen™) were conducted for AKT1, AKT2, AKT3, PKG1, S6K1, PKN1, βMSK2, and Haspin at Life Technologies™ in a 10-point dose response using Km ATP concentrations. LanthaScreen™ assays were conducted for RET (V804M) in a 10-point dose response at Life Technologies™.

Another experiment concerns the target T2, AKT3 (Homo sapiens, UniProt Q9Y243).
T2 construct: purchased Life Technologies (Invitrogen)
Nature of the experiment: Z'-LYTE assay (AKT binding assay), AKT3. Particulars: 10-point dose response, Km ATP, read-out: Biochemical Binding AKT3. Here is the method:
as §1

The target in a further experiment is T3, AKT1 (Homo sapiens, UniProt P31749).
T3 construct: purchased Life Technologies (Invitrogen)
Nature of the experiment: Z'-LYTE assay (AKT binding assay), AKT1. Particulars: 10-point dose response, Km ATP, read-out: Biochemical Binding AKT1. The method, then:
as §1

The test system of a further experiment is ZR-75-1 cells. The experiment can be described thus: Growth inhibition rate (GR) assay in ZR-75-1 cells. Type of experiment: cell-based. As to conditions: 72-hour treatment (FIG. 6A). The source says: FIG. 6A-FIG. 6F are a set of graphs that show growth inhibition rate (GR) values across concentrations in ZR-75-1 (FIG. 6A), T47D (FIG. 6B), LNCaP (FIG. 6C), MCF-7 (FIG. 6D), MDA-MB-468 (FIG. 6E), and HCC1937 (FIG. 6F) cells after 72-hour treatment with GDC-0068 (blue), inventive bifunctional compound 10 (red), bifunctional compound 10-Me (negative control) (green), and lenalidomide (orange). Error bars represent the standard deviation of three technical replicates.

T3 sequence (P31749 whole entry): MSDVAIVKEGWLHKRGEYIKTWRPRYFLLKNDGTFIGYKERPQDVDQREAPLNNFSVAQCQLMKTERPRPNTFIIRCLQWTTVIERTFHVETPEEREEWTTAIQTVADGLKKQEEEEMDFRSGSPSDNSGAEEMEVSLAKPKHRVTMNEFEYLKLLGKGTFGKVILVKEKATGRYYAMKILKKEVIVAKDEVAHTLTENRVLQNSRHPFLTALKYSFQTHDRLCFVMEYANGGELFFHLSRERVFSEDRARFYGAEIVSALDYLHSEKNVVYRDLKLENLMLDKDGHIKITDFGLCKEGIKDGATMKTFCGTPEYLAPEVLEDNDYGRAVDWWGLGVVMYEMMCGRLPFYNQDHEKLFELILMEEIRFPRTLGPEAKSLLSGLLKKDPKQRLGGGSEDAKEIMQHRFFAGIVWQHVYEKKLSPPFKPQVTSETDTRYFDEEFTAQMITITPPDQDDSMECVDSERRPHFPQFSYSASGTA
T1 sequence (P31751 whole entry): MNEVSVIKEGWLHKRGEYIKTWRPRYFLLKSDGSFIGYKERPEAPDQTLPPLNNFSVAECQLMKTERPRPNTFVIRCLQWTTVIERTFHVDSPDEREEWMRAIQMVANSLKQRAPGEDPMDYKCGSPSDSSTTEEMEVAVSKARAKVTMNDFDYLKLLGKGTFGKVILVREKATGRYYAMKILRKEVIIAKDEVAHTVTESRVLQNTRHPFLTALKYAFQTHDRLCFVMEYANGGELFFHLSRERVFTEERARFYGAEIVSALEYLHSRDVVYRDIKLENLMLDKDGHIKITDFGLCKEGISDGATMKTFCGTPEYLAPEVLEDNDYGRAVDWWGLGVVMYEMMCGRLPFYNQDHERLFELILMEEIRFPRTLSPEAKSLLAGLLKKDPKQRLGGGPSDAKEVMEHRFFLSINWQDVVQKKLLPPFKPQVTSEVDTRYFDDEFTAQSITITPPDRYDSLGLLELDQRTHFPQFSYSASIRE
T2 sequence (Q9Y243 whole entry): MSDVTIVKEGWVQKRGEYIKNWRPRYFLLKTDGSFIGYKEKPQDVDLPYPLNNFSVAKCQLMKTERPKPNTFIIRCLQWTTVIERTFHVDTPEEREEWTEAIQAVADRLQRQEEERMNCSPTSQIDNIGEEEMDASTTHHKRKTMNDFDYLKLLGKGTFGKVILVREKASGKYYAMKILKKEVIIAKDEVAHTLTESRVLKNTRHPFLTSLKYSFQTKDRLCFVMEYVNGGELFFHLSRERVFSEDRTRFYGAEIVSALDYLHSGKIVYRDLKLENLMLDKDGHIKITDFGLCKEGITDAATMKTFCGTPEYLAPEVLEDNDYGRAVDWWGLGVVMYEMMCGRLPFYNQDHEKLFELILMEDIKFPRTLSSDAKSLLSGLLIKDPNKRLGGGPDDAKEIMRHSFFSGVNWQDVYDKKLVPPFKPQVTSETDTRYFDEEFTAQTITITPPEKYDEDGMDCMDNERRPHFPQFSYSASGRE

On to `C[C@@H]1C[C@@H](O)c2ncnc(N3CCN(C(=O)[C@H](CNCCCNC(=O)COc4cccc5c4C(=O)N(C4CCC(=O)NC4=O)C5=O)c4ccc(Cl)cc4)CC3)c21` (stereo partly drawn) [Compound 2, N-(3-(((S)-2-(4-chlorophenyl)-3-(4-((5R,7R)-7-hydroxy-5-methyl-6,7-dihydro-5H-cyclopenta[d]pyrimidin-4-yl)piperazin-1-yl)-3-oxopropyl)-amino)propyl)-2-((2-(2,6-dioxopiperidin-3-yl)-1,3-dioxoisoindolin-4-yl)oxy) acetamide], for which the values for the IC50 on AKT2, at AKT3 and on AKT1 were 31.4 nM, 20.4 nM and 3.93 nM, respectively.

As for `C[C@@H]1C[C@@H](O)c2ncnc(N3CCN(C(=O)[C@H](CNCCOCCOCCNC(=O)COc4cccc5c4C(=O)N(C4CCC(=O)NC4=O)C5=O)c4ccc(Cl)cc4)CC3)c21` (stereo partly drawn) [Compound 4, N-(2-(2-(2-(((S)-2-(4-chlorophenyl)-3-(4-((5R,7R)-7-hydroxy-5-methyl-6,7-dihydro-5H-cyclopenta[d]pyrimidin-4-yl)piperazin-1-yl)-3-oxopropyl)amino)ethoxy)ethoxy)ethyl)-2-((2-(2,6-dioxopiperidin-3-yl)-1,3-dioxoisoindolin-4-yl)oxy)acetamide], the IC50 at AKT1 stood at 6.97 nM.

Turning to `C[C@@H]1C[C@@H](O)c2ncnc(N3CCN(C(=O)[C@H](CNCCOCCNC(=O)COc4cccc5c4C(=O)N(C4CCC(=O)NC4=O)C5=O)c4ccc(Cl)cc4)CC3)c21` (stereo partly drawn) [Compound 5, N-(2-(2-(((S)-2-(4-chlorophenyl)-3-(4-((5R,7R)-7-hydroxy-5-methyl-6,7-dihydro-5H-cyclopenta[d]pyrimidin-4-yl)piperazin-1-yl)-3-oxopropyl)amino)ethoxy)ethyl)-2-((2-(2,6-dioxopiperidin-3-yl)-1,3-dioxoisoindolin-4-yl)oxy)acetamide], the IC50 at AKT1 came to 3.4 nM.

For `Cc1ncsc1-c1ccc([C@H](C)NC(=O)[C@@H]2C[C@@H](O)CN2C(=O)[C@@H](NC(=O)CCOCCOCCNC[C@@H](C(=O)N2CCN(c3ncnc4c3[C@H](C)C[C@H]4O)CC2)c2ccc(Cl)cc2)C(C)(C)C)cc1` [Compound 6, (2S,4R)-1-((2S,15S)-2-(tert-butyl)-15-(4-chlorophenyl)-16-(4-((5R,7R)-7-hydroxy-5-methyl-6,7-dihydro-5H-cyclopenta[d]pyrimidin-4-yl)piperazin-1-yl)-4,16-dioxo-7,10-dioxa-3,13-diazahexadecanoyl)-4-hydroxy-N—((S)-1-(4-(4-methylthiazol-5-yl)phenyl)ethyl)pyrrolidine-2-carboxamide], the IC50 on AKT1 amounted to 3.8 nM.

Regarding `C[C@@H]1C[C@@H](O)c2ncnc(N3CCN(C(=O)[C@H](CNCCCCCCCCC#Cc4cccc5c4CN(C4CCC(=O)NC4=O)C5=O)c4ccc(Cl)cc4)CC3)c21` (stereo partly drawn) [Compound 7, 3-(4-(10-(((S)-2-(4-chlorophenyl)-3-(4-((5R,7R)-7-hydroxy-5-methyl-6,7-dihydro-5H-cyclopenta[d]pyrimidin-4-yl)piperazin-1-yl)-3-oxopropyl)amino)dec-1-yn-1-yl)-1-oxoisoindolin-2-yl)piperidine-2,6-dione], the IC50 on AKT1 was 2.46 nM.

On to `C[C@@H]1C[C@@H](O)c2ncnc(N3CCN(C(=O)[C@H](CNCCCCc4cccc5c4C(=O)N(C4CCC(=O)NC4=O)C5=O)c4ccc(Cl)cc4)CC3)c21` (stereo partly drawn) [Compound 9, 4-(4-(((S)-2-(4-chlorophenyl)-3-(4-((5R,7R)-7-hydroxy-5-methyl-6,7-dihydro-5H-cyclopenta[d]pyrimidin-4-yl)piperazin-1-yl)-3-oxopropyl)amino)butyl)-2-(2,6-dioxopiperidin-3-yl)isoindoline-1,3-dione], for which the IC50 at AKT1 turned out to be 1.8 nM.

Turning to `C[C@@H]1C[C@@H](O)c2ncnc(N3CCN(C(=O)[C@H](CNCCCCCCCCCCc4cccc5c4CN(C4CCC(=O)N(C)C4=O)C5=O)c4ccc(Cl)cc4)CC3)c21` (stereo partly drawn) [Compound 10-Me, 3-(4-(10-(((S)-2-(4-chlorophenyl)-3-(4-((5R,7R)-7-hydroxy-5-methyl-6,7-dihydro-5H-cyclopenta[d]pyrimidin-4-yl)piperazin-1-yl)-3-oxopropyl)amino)decyl)-1-oxoisoindolin-2-yl)-1-methylpiperidine-2,6-dione], the “Anti-proliferative potency relative to compound 10” value in the experiment on ZR-75-1 cells was “significantly less potent”. Moreover, the GR50 with ZR-75-1 cells (Homo sapiens, read-out: GR50) turned out to be 413 nM.
